For one data set, the system named is 3T3-L1 fibroblasts. Nature of the data set: Adipocyte differentiation of murine 3T3-L1 cells (Oil Red O staining). The class given is cell-based. The note with it: 1c 1-10 μM; CIU 10 μM.
The subject of data set [1] is human primary preadipocytes. Nature of the data set: Adipocyte differentiation of human primary preadipocytes (Oil Red O staining). The note with it: 1c 1-10 μM; CIU 10 μM. The class given is cell-based. How it is done: Human primary preadipocytes were obtained from stromal vascular fraction of subcutaneous fat from anonymous donors undergoing elective cosmetic surgery. Adipose tissue was digested by collagenase solution (0.3 U/ml in 1% BSA/PBS) for 45 min at 37° C. with constant shaking. Floating mature adipocytes were removed and the pellet containing the stromal vascular fraction was resuspended in erythrocyte lysis buffer. […] After 4 days the medium was changed to 3FC medium (QuickDiff medium without dexamethasone, IBMX and rosiglitazone). Adipocytes were cultured for additional 14 days before medium was changed to basal medium consisting of DMEM/Ham's F12 with biotin and panthotenate. This investigation conforms to the ethical principles outlined in the Declaration of Helsinki and was approved by the university ethics committee (Ethik-Kommission des Fachbereichs Medizin der Goethe-Universitat Frankfurt am Main). Total RNA was isolated using PeqGold RNAPure (Peqlab) according to manufacturer's instructions and was transcribed to cDNA using Maxima First Strand cDNA synthesis kit (Thermo Scientific), following manufacturer's instructions. Quantitative PCR was performed with iQ SYBR green Supermix (Bio-Rad) using a CFX96 (Bio-Rad) system. Expression was normalized to actin RNA.

The next data set addresses T1, recombinant human sEH (Homo sapiens, UniProt P34913).
T1 sequence (P34913 1-555): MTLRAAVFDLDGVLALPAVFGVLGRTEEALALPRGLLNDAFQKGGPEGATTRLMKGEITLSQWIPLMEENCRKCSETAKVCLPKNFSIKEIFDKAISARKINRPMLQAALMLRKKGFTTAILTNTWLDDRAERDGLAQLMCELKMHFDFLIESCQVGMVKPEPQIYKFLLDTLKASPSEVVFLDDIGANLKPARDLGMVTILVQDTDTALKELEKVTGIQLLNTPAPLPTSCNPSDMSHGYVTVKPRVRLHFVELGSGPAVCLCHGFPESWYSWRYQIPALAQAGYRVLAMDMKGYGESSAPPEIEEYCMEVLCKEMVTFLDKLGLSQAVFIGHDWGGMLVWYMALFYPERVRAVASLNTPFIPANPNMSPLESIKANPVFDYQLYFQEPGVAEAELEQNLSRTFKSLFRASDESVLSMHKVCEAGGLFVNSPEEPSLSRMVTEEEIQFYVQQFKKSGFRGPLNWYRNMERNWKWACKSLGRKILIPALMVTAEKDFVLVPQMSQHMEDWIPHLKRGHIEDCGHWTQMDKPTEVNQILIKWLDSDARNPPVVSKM
Nature of the data set: biochemical.

In a further data set the target is T2, PPARα (Homo sapiens, UniProt Q07869).
T2 construct: expressed in transfected cells; host or cells: COS-7
T2 sequence (Q07869 239-466): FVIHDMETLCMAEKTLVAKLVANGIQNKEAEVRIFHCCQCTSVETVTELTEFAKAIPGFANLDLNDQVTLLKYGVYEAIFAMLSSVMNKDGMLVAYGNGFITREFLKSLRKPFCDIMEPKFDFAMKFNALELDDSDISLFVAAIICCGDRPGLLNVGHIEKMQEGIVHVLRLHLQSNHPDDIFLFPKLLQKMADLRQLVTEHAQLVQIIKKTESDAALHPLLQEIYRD
The class given is cell-based.

The target of a further data set is T3, PPARδ (Homo sapiens, UniProt Q03181).
T3 construct: expressed in transfected cells; host or cells: COS-7
T3 sequence (Q03181 211-439): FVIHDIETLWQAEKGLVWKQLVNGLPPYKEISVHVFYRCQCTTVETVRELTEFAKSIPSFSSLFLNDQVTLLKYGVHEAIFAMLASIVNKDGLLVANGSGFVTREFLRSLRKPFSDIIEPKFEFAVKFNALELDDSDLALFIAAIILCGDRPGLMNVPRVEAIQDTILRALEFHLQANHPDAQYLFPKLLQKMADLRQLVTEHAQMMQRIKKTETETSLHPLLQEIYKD
Nature of the data set: PPAR transactivation assay in COS-7 cells (Gal4-hPPAR-LBD, luciferase). The class given is cell-based.

The conditions of data set [2]: after p.o. 30 mg/kg bw of 1b, all time points.
Method: Blood was sampled 15 min, 30 min, 1 h, 2 h, 4 h and 8 h after test item application and only 8 h after vehicle application. Each drug treated mouse was sampled twice (0.25 and 0.5 h, 1 and 2 h, 4 and 8 h) via retro orbital puncture. Blood was collected in tubes containing lithium-heparin, stored on ice and subsequently centrifuged at 6000 rpm for 10 minutes at 4° C. (Heraeus biofuge fresco). The plasma was prepared within 45 min after sampling and kept at −20° C. until being assayed. For further kinetic and dynamic analysis the tissues (brain, liver, abdominal fat) were collected 30 min, 2h and 8 h post dose, after the second plasma sampling of each drug treated mouse. Tissue of the vehicle group was sampled only once, 8 h post dose. A volume of 40 μl acetonitrile containing the internal standard (300 ng/ml Diazepam) was added to 20 μl of mouse plasma sample, plasma calibration standard and plasma QC samples. Samples were vigorously shaken and centrifuged for 10 minutes at 6000 g and 20° C. The particle free supernatant was diluted 1:1 with water. An aliquot was transferred to 200 μl sampler vials and subsequently subjected to LC MS with an injection volume of 20 pl. The brain samples were homogenized in PBS (1+1, w/v) using the Precellys 24/Dual homogenizer. A volume of 20 μl of the brain homogenate was mixed (1+1 v/v/) with 20 μl mouse blank plasma. Then 80 μl acetonitrile containing the internal standard (300 ng/ml Diazepam) were added. Samples were vigorously shaken and centrifuged for 10 minutes at 6000 g and 20° C. The particle free supernatant was diluted 1:1 with water. An aliquot was transferred to 200 μl sampler vials and subsequently subjected to LC MS with an injection volume of 20 μl. Mass spectrometry was performed on a TSQ Quantum Discovery Max triple quadrupole mass spectrometer equipped with an electrospray (ESI) interface (Thermo Fisher Scientific, USA) connected to a PC running the standard software Xcalibur 2.0.7. […]
The target in a further data set is T4, PPARγ (Homo sapiens, UniProt P37231).
T4 construct: expressed in transfected cells; host or cells: COS-7
T4 sequence (P37231 238-503): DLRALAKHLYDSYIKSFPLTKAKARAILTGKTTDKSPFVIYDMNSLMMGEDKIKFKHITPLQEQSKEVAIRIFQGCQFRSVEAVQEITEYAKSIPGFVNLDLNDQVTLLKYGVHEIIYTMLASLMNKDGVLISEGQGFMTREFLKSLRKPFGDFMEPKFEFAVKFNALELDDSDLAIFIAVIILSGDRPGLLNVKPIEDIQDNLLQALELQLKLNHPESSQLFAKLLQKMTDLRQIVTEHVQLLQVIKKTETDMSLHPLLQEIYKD
The data set can be described thus: cell-based. The class given is cell-based. The conditions noted are these: for EC50 PPARγ: i.a. = inactive; for activation at 10 µM: COS-7, read-out: PPARγ activation @10 μM, at 10 μM, compared to pioglitazone 1 μM. How it is done:
COS-7 cells (PPAR) were grown in DMEM high glucose, supplemented with 10% fetal calf serum (FCS), 1% sodium pyruvate (SP) and 1% penicillin/streptomycin (PS) at 37° C. and 5% CO2. Used plasmids for PPAR transactivation assay are shown under supporting informations.
The day before transfection, COS-7 cells were seeded in 96-well plates with a density of 30,000 cells per well. Transient transfection was carried out using Lipofectamine LTX reagent (Invitrogen, Carlsbad, Calif., USA) according to the manufacturer's protocol with pFR-Luc (Stratagene), pRL-SV40 (Promega) and the Ga14-fusion receptor plasmids (pFA-CMV-hPPAR-LBD) of the respective PPAR subtype. 5 h after transfection, medium was changed to DMEM without phenol red and 10% FCS, supplemented with 1% SP, 1% PS and 1% L-glutamine, now additionally containing 0.1% DMSO and the respective test compound or 0.1% DMSO alone as untreated control. Each concentration was tested in triplicate wells and each experiment was repeated independently at least three times. Following overnight incubation with the test compounds, cells were assayed for luciferase activity using Dual-Glo™ Luciferase Assay System (Promega) according to the manufacturer's protocol. Luminescence was measured with an Infinite m200 luminometer (Tecan Deutschland GmbH). Each concentration of the compounds was tested in triplicate wells. Normalization for transfection efficacy and cell growth was done by division of the firefly luciferase data by renilla luciferase data resulting in relative light units. Activation factors were obtained by dividing by DMSO control. […] All compounds were evaluated by comparison of the achieved maximum effect to that of the reference compound (pioglitazone for PPARγ, GW7647 for PPARa, and L165041 for PPARS each with 1 μM). Data are expressed as mean±SE; n≥3.
The Gal4-fusion receptor plasmids pFA-CMV-PPARa-LBD, pFA-CMV-PPARS-LBD and pFA-CMV-PPARγ-LBD containing the hinge region and ligand binding domain (LBD) for each of the PPAR subtypes, respectively, were constructed by integrating cDNA fragments obtained from PCR amplification of human monocytes into the SmaI/XbaI cleavage site of the pFA-CMV vector (Stratagene, La Jolla, Calif., USA) and have already been published. […] Frame and sequence of the fusion receptors were verified by sequencing. pFR-Luc (Stratagene) was used as reporter plasmid and pRL-SV40 (Promega) for normalization of transfection efficacy and cell growth.

Data set [3] can be described thus: Water solubility approximation. The class given is physicochemical. The note with it: PBS with 0.01% Polysorbate 20, aqueous with cosolvent or surfactant or cyclodextrin, kinetic from dmso stock; PBS pH 7.4, 0.01% Polysorbate 20, 1% DMSO; precipitation at 650 nm; read-out: w.s. (water solubility). How it is done: PBS at pH 7.4 with 0.01% Polysorbate 20 (Tween) was combined with 1% of a DMSO solution of the inquired compound in a 96-well transparent flat bottom microtiter plate. Precipitation of the compound was measured at 650 nm with a Tecan Infinite 200 (Tecan Group Ltd, Mannedorf, Switzerland).

[4] abbreviates: read-out: sEH IC50 / inhibitory potency (unit inferred).

In brackets after ≈: the same amount, converted by molar mass. Read-outs that look alike come from different tables or passages of the source.

Method for 3T3-L1 fibroblasts: 3T3-L1 cells were subcultured in DMEM containing 10% newborn calf serum in a humidified atmosphere at 37° C., 5% CO2. […] Briefly, cells were seeded in 6-well plates (2.5×10^6/well). Differentiation was started at day 3 by addition of 1 μg/ml insulin, 0.25 dexamethasone and 0.5 mM isobutylmethylxanthine in DMEM supplemented with 10% fetal calf serum. At day 5 medium was replaced by medium containing only insulin for 2 more days. After this, cells were kept for lipid droplet accumulation in basal medium without additions until day 15.

`O=C(Nc1ccc(I)cc1)NC1CCCCC1` [CIU, N-cyclohexyl-N′-iodophenyl urea, reference compound]: the “adipocyte differentiation (Oil-Red O)” value in the data set with 3T3-L1 fibroblasts was “able to start adipocyte differentiation”; in data set [1] it was “not able to start differentiation”.

`CCOC(=O)C(CC)Cc1ccc(C(=O)NCc2ccccc2C(F)(F)F)cc1` (stereo not shown) [Compound 1b, Ethyl 2-ethyl 3-[4-(N-((2-trifluoromethyl)benzyl)benzamide)]propanoate]: the IC50 at recombinant human sEH (read-out: IC50 sEH (converted)) was 44 ± 5 nM. Also, on PPARα (i.a. = inactive), the “EC50 PPARα” value is listed as “i.a”. The “EC50 PPARδ” value at PPARδ (i.a. = inactive) is recorded as “i.a”. Further, in data set [2], the 1b in plasma entry is given as “not detected”.

On to `CCOC(=O)C(CC)Cc1ccc(C(=O)NCc2ccccc2Br)cc1` (stereo not shown) [Compound 5b, Ethyl 2-ethyl 3-[4-(N-((2-bromo)benzyl)benzamide)]propanoate], for which the “EC50 PPARα” value on PPARα (i.a. = inactive) is listed as “n.t. i.a. i.a. n.t”. For the same molecule, on PPARδ (i.a. = inactive), the “EC50 PPARδ” value is “n.t. i.a. i.a. n.t”. The “EC50 PPARγ” value on PPARγ is on record as “i.a”. In addition, in data set [3], the solubility stood at 25 µM (≈ 10.5 µg/mL).

For `O=C(O)c1ccc(-c2ccc(C(=O)NCc3ccccc3C(F)(F)F)cc2)cc1` [Compound 25], on recombinant human sEH (read-out: IC50 sEH (converted)), the IC50 is 170 nM. Further, the “EC50 PPARα” value on PPARα is “i.a”. Moreover, the “EC50 PPARδ” value at PPARδ is recorded as “i.a”. Besides, the activation at 10 µM at PPARγ was ~30%. Moreover, in data set [3], the solubility worked out at 5 µM (≈ 2 µg/mL).

Consider `O=C(O)c1cccc(-c2ccc(C(=O)NCc3ccccc3C(F)(F)F)cc2)c1` [Compound 26], for which, at recombinant human sEH (setting [4]), the IC50 came out at 1000 nM. The “EC50 PPARα” value at PPARα is “i.a”. For the same molecule, the “EC50 PPARδ” value at PPARδ is listed as “i.a”. Also, the activation at 10 µM at PPARγ is ~30%.

As to `N#Cc1ccc(C(=O)NCc2ccccc2C(F)(F)F)cc1` [Compound 27, 4-Cyano-N-(2-(trifluoromethyl)benzyl)benzamide], the IC50 at recombinant human sEH (setting [4]) was determined as 64 nM. Moreover, the “EC50 PPARα” value on PPARα (i.a. = inactive) is “remained unaffected”. Further, on PPARδ (i.a. = inactive), the “EC50 PPARδ” value is on record as “remained unaffected”. Moreover, on PPARγ, the “EC50 PPARγ” value is reported as “remained unaffected”.

As to `O=C(NCc1ccccc1C(F)(F)F)c1ccc(-c2nnn[nH]2)cc1` [Compound 28, [N-(2-(Trifluoromethyl)benzyl)benzamid]-4-(1H-tetrazole)], the IC50 at recombinant human sEH (read-out: IC50 sEH (converted)) was 5000 nM. The “EC50 PPARα” value at PPARα (i.a. = inactive) is recorded as “i.a”. The “EC50 PPARδ” value at PPARδ (i.a. = inactive) is reported as “i.a”. For the same molecule, the “EC50 PPARγ” value on PPARγ is “i.a”. The solubility in data set [3] amounted to 500 µM (≈ 174 µg/mL).

Values taken from patent publication US11447445B2, “Diabetes and metabolic syndrome treatment with a novel dual modulator of soluble epoxide hydrolase and peroxisome proliferator-activated receptors” (priority 2015, dated 2022).
